Columns and labels:
[1] = target: T1, recombinant human transglutaminase 2 (Homo sapiens, UniProt P21980); experiment: Transglutaminase assay (DCC-assay): incorporation of dansylcadaverine into dimethylcasein; assay type: biochemical; conditions: recombinant human TG2 10 nM; dansylcadaverine incorporation into dimethylcasein; read-out: IC50 TG2
T1 construct: purchased Zedira T022
T1 sequence (P21980 1-687): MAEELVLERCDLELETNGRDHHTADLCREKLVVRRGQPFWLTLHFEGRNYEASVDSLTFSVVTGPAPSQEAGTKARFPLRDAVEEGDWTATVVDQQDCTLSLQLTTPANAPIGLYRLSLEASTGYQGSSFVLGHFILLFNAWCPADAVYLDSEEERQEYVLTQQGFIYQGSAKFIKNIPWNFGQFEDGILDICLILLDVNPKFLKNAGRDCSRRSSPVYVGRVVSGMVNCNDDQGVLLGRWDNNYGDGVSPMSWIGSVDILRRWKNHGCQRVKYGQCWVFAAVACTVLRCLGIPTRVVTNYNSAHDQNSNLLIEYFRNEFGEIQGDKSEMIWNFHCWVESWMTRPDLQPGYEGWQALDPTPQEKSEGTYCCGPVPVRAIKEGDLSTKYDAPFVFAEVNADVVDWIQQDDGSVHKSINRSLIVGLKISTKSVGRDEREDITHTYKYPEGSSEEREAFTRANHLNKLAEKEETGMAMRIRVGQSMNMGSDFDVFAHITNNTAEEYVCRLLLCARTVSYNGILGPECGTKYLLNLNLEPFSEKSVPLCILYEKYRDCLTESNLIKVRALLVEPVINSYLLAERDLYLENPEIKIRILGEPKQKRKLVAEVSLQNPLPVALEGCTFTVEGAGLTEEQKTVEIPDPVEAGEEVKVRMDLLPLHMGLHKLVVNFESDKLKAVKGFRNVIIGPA
How it was run: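 Recombinant human TG2 (10 nM final) incorporates dansylcadaverine into N,N-dimethylcasein. Reaction mix: 50 mM Tris-HCl, 10 mM CaCl2, 10 mM glutathione, 2.5% glycerol, 16.7 µM dansylcadaverine, 4 µM dimethylcasein, 200 mM NaCl, pH 8.0. Fluorescence (ex 330/em 500 nm) was followed 30 min at 37 °C; the 20–30 min slope, expressed as % of 2% DMSO control, gave IC50.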

[2] = logD by shake flask method (octanol / PBS pH 7.4, HPLC); assay type: physicochemical; conditions: octanol / PBS pH 7.4, shake flask
How it was run: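 Shake-flask partition of compound between octanol and phosphate-buffered saline at pH 7.4, with each phase quantified by HPLC to give LogD.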

[3] = Caco-2 permeability assay (CacoReady kit); assay type: in vitro ADME; conditions: human, Caco-2, Caco-2 barrier, CacoReady kit; above 1×10^−6 cm/s classified as permeable
How it was run: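 Papp values come from Caco-2 barrier studies intended to predict oral bioavailability; the manufacturer's procedure for the ready-made kit was followed.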

| IC50 [1] [µM] | logD [2] | Papp [3] [nm/s] | SMILES |
| --- | --- | --- | --- |
| 0.04 to 0.4 | 1 to 3 | 10 to 100 | CNC(=O)C(=O)CC[C@H](NC(=O)c1oc2ccccc2c1C)C(=O)Nc1cccn(CC(=O)NC23CCC(CC2)C3)c1=O [II-95, (S)-N1-(1-(2-(bicyclo[2.2.1]heptan-1-ylamino)-2-oxoethyl)-2-oxo-1,2-dihydropyridin-3-yl)-N6-methyl-2-(3-methylbenzofuran-2-carboxamido)-5-oxohexanediamide] |
| 0.04 to 0.4 | 1 to 3 | 10 to 100 | CNC(=O)C(=O)CC[C@H](NC(=O)c1oc2ccccc2c1C)C(=O)Nc1cccn(CC(=O)NC2C3CCC2CC3)c1=O (stereo partly drawn) [II-96, (S)-N1-(1-(2-(bicyclo[2.2.1]heptan-7-ylamino)-2-oxoethyl)-2-oxo-1,2-dihydropyridin-3-yl)-N6-methyl-2-(3-methylbenzofuran-2-carboxamido)-5-oxohexanediamide] |
| 0.04 to 0.4 | 1 to 3 | 10 to 100 | CNC(=O)C(=O)CC[C@H](NC(=O)c1oc2ccccc2c1C)C(=O)Nc1cccn(CC(=O)NC2CC3C=CC2C3)c1=O (stereo partly drawn) [II-97, (S)-N1-(1-(2-(bicyclo[2.2.1]hept-5-en-2-ylamino)-2-oxoethyl)-2-oxo-1,2-dihydropyridin-3-yl)-N6-methyl-2-(3-methylbenzofuran-2-carboxamido)-5-oxohexanediamide] |
| 0.04 to 0.4 | 1 to 3 | 10 to 100 | CNC(=O)C(=O)CC[C@H](NC(=O)c1oc2ccccc2c1C)C(=O)Nc1cccn(CC(=O)NC2CC3CCC2CC3)c1=O (stereo partly drawn) [II-98, (2S)-N1-(1-(2-(bicyclo[2.2.2]octan-2-ylamino)-2-oxoethyl)-2-oxo-1,2-dihydropyridin-3-yl)-N6-methyl-2-(3-methylbenzofuran-2-carboxamido)-5-oxohexanediamide] |
| 0.04 to 0.4 | 3 to 5 | 10 to 100 | CNC(=O)C(=O)CC[C@H](NC(=O)c1oc2ccccc2c1C)C(=O)Nc1cccn(CC(=O)N[C@H]2C[C@H]3C[C@@H]([C@@H]2C)C3(C)C)c1=O [II-101, (S)-N1-methyl-5-(3-methylbenzofuran-2-carboxamido)-2-oxo-N6-(2-oxo-1-(2-oxo-2-((1S,2S,3S,5R)-2,6,6-trimethylbicyclo[3.1.1]heptan-3-ylamino)ethyl)-1,2-dihydropyridin-3-yl)hexanediamide] |
| 0.04 to 0.4 | 1 to 3 | 10 to 100 | CNC(=O)C(=O)CC[C@H](NC(=O)c1oc2ccccc2c1C)C(=O)Nc1cccn(CC(=O)NC23CCCC4CC(CCC42)C3)c1=O (stereo partly drawn) [II-103, (S)-N1-(1-(2-(4-homoisotwistane-3-amino)-2-oxoethyl)-2-oxo-1,2-dihydropyridin-3-yl)-N6-methyl-2-(3-methylbenzofuran-2-carboxamido)-5-oxohexanediamide] |
| 0.04 to 0.4 | 3 to 5 | 10 to 100 | CNC(=O)C(=O)CC[C@H](NC(=O)c1oc2ccccc2c1C)C(=O)Nc1cccn(CC23CC4CC(CC(C4)C2)C3)c1=O [II-107, (S)-N1-(1-(1-adamantylmethyl)-2-oxo-1,2-dihydropyridin-3-yl)-N6-methyl-2-(3-methylbenzofuran-2-carboxamido)-5-oxohexanediamide] |
| < 0.04 | 1 to 3 | < 10 | CNC(=O)C(=O)CC[C@H](NC(=O)c1ccncc1)C(=O)Nc1cccn(CC(=O)NC2C3CC4CC(C3)CC2C4)c1=O (stereo partly drawn) [II-112, (S)-2-(isonicotinamido)-N1-(1-(2-(2-adamantylamino)-2-oxoethyl)-2-oxo-1,2-dihydropyridin-3-yl)-N6-methyl-5-oxohexanediamide] |
| 0.04 to 0.4 | < 1 | < 10 | CNC(=O)C(=O)CC[C@H](NC(=O)c1ccnnc1)C(=O)Nc1cccn(CC(=O)NC2C3CC4CC(C3)CC2C4)c1=O (stereo partly drawn) [II-113, (S)-N1-(1-(2-(2-adamantylamino)-2-oxoethyl)-2-oxo-1,2-dihydropyridin-3-yl)-N6-methyl-5-oxo-2-(pyridazine-4-carboxamido)hexanediamide] |

Continued, compound first:

| SMILES | IC50 [1] [µM] | logD [2] | Papp [3] [nm/s] |
| --- | --- | --- | --- |
| CNC(=O)C(=O)CC[C@H](NC(=O)c1oc2ccccc2c1C)C(=O)Nc1cccn(CC(=O)N[C@@H]2C[C@H]3CC[C@@H]2C3)c1=O [II-94, (S)-N1-(1-(2-((1R,2R,4S)-bicyclo[2.2.1]heptan-2-ylamino)-2-oxoethyl)-2-oxo-1,2-dihydropyridin-3-yl)-N6-methyl-2-(3-methylbenzofuran-2-carboxamido)-5-oxohexanediamide] | < 0.04 | 1 to 3 | 10 to 100 |
| CNC(=O)C(=O)CC[C@H](NC(=O)c1oc2ccccc2c1C)C(=O)Nc1cccn(CC(=O)N[C@@H]2C[C@H]3CC[C@]2(C)C3(C)C)c1=O [II-99, (S)-N1-methyl-5-(3-methylbenzofuran-2-carboxamido)-2-oxo-N6-(2-oxo-1-(2-oxo-2-((1R,2R,4R)-1,7,7-trimethylbicyclo[2.2.1]heptan-2-ylamino)ethyl)-1,2-dihydropyridin-3-yl)hexanediamide] | 0.04 to 0.4 | 3 to 5 | 10 to 100 |
| CNC(=O)C(=O)CC[C@H](NC(=O)c1oc2ccccc2c1C)C(=O)Nc1cccn(CC(=O)N[C@@H]2C[C@@H]3C[C@H]([C@H]2C)C3(C)C)c1=O [II-100, (S)-N1-methyl-5-(3-methylbenzofuran-2-carboxamido)-2-oxo-N6-(2-oxo-1-(2-oxo-2-((1R,2R,3R,5S)-2,6,6-trimethylbicyclo[3.1.1]heptan-3-ylamino)ethyl)-1,2-dihydropyridin-3-yl)hexanediamide] | 0.04 to 0.4 | 3 to 5 | 10 to 100 |
| CNC(=O)C(=O)CC[C@H](NC(=O)c1oc2ccccc2c1C)C(=O)Nc1cccn(CC23CC4CC(CC(O)(C4)C2)C3)c1=O [II-108, (2S)-N1-(1-((3-hydroxy-1-adamantyl)methyl)-2-oxo-1,2-dihydropyridin-3-yl)-N6-methyl-2-(3-methylbenzofuran-2-carboxamido)-5-oxohexanediamide] | 0.04 to 0.4 | 1 to 3 | < 10 |
| CNC(=O)C(=O)CC[C@H](NC(=O)c1oc2ccccc2c1C)C(=O)Nc1cccn(CC23CC4CC(CC(Br)(C4)C2)C3)c1=O [II-109, (2S)-N1-(1-((3-bromo-1-adamantyl)methyl)-2-oxo-1,2-dihydropyridin-3-yl)-N6-methyl-2-(3-methylbenzofuran-2-carboxamido)-5-oxohexanediamide] | 0.04 to 0.4 | 3 to 5 | 10 to 100 |
| CNC(=O)C(=O)CC[C@H](NC(=O)c1oc2ccccc2c1C)C(=O)Nc1cccn(CC2C3CC4CC(C3)CC2C4)c1=O (stereo partly drawn) [II-110, (S)-N1-(1-(2-adamantylmethyl)-2-oxo-1,2-dihydropyridin-3-yl)-N6-methyl-2-(3-methylbenzofuran-2-carboxamido)-5-oxohexanediamide] | 0.04 to 0.4 | 3 to 5 | 10 to 100 |
| CNC(=O)C(=O)CC[C@H](NC(=O)c1cccnc1)C(=O)Nc1cccn(CC(=O)NC2C3CC4CC(C3)CC2C4)c1=O (stereo partly drawn) [II-111, (S)-N1-(1-(2-(2-adamantylamino)-2-oxoethyl)-2-oxo-1,2-dihydropyridin-3-yl)-N6-methyl-2-(nicotinamido)-5-oxohexanediamide] | < 0.04 | 1 to 3 | < 10 |

Source: US20240383856A1 (Zedira GmbH, priority 2021, published 2024)
